Reference: ChEMBL document CHEMBL1150581, “Batzelline D and isobatzelline E from the indopacific sponge Zyzzya fuliginosa” (J Nat Prod, 2002)
Active and inactive are the calls of the source. The rule behind the calls is not given here.

Tests used:
[1] = system: NIH3T3; test: Inhibition of HIV1 env protein assessed as inhibition of env expressing african green monkey BSC1 cell fusion with mouse NIH3T3 cell expressing CXCR4 and Escherichia coli T7 at 1 ug/ml after 2.5 hrs by beta galactosidase report gene assay; details: Human immunodeficiency virus 1
[2] = Inhibition of HIV1 env protein assessed as inhibition of env expressing african green monkey BSC1 cell fusion with mouse NIH3T3 cell expressing CXCR4 and Escherichia coli T7 after 2.5 hrs by beta galactosidase report gene assay; details: Human immunodeficiency virus 1, NIH3T3, 2.5 h

| Compound | Activity [1] | IC50 [2] |
| --- | --- | --- |
| Cn1cc2c3c1C(=O)C(N)=C(Cl)C3=NCC2 [ISOBATZELLINE C] | Active | 0.2 µM |
| Cn1cc2c3c1C(=O)C(N)=CC3=NCC2 [MAKALUVAMINE A] | Active | 5 µM |
| Cn1cc2c3c1C(=O)C(N)=CC3=[N+](C)CC2 [MAKALUVAMINE H] | Active | 5 µM |
